Measured values taken from patent publication US5006533A, “Certain 3-bromo-2,6-dimethoxybenzamides and pharmaceutical use thereof” (Boehringer Ingelheim GmbH, priority 1986, dated 1991).
Structures can show the parent of a compound that is named as a salt.

Tests used:
[1] = test system: rhesus monkeys sensitised with haloperidol; experiment: dyskinesia in rhesus monkeys sensitised with haloperidol; format: in vivo, rhesus monkey; conditions: for Dyskinesia threshold dose p.o.: rhesus monkeys sensitised with haloperidol; for Dyskinesia index I:II: ratio of climbing test ED50 (I) to dyskinesia threshold dose (II)
From the text: The dyskinetic effects are among the most disturbing side effects of neuroleptic drugs. These include Parkinsonian manifestations such as tremor, rigidity and akinesia but also dyskinesia in the mouth-tongue-pharynx region.
The investigation of such symptoms in an animal model is possible using rhesus monkeys sensitised with haloperidol. After being given neuroleptic drugs, which have extrapyramidal motor effects in humans, these animals show typical dyskinesia in the mouth and tongue region (according to J. Liebmann and R. Neale, Psychopharmacology 68, 25-29 (1980) modified).

[2] = test system: apomorphine climbing, mouse; experiment: apomorphine climbing test on the mouse; format: in vivo; conditions: after 1 h
LD50 (mouse) p.o. = conditions: in vivo, po

SMILES | Dyskinesia threshold dose p.o. [1] [mg/kg] | Dyskinesia index I:II [1] | ED50 [2] [mg/kg] | LD50 (LD50 (mouse) p.o.) [mg/kg]
COc1ccc(Br)c(OC)c1C(=O)NC1CC2CC(O)C(C1)N2Cc1ccc(F)cc1 (stereo not drawn) [X = F, N-[8-(4-Fluorobenzyl)-6-hydroxy-3-nortropanyl]-2,6-dimethoxy-3-bromobenzamide-hydrochloride] | 8 | 0.078 | 0.63 | –
COc1ccc(Br)c(OC)c1C(=O)NC1CC2CC(O)C(C1)N2Cc1ccc(Cl)cc1 (racemic) [X = Cl, N-[8-(4-Chlorobenzyl)-6-hydroxy-3-nortropanyl]-2,6-dimethoxy-3-bromobenzamide-hydrochloride] | 30 | 0.028 | 0.85 | > 1000
COc1ccc(Br)c(OC)c1C(=O)NC1CC2CC(O)C(C1)N2Cc1ccccc1 (stereo not drawn) [X = H, N-(8-Benzyl-6-hydroxy-3-nortropanyl)-2,6-dimethoxy-3-bromobenzamide fumarate] | > 15 | < 0.08 | 1.2 | ~300
COc1ccc(Br)c(OC)c1C(=O)NC1CC2CCC(C1)N2Cc1ccccc1 (stereo not drawn) [A, N-(8-benzyl-3-nortropanyl)-2,6-dimethoxy-3-bromobenzamide, reference compound] | 10 | 0.18 | 1.8 | ~300
